Test results published in PMC4213378, “Pharmacokinetics and Efficacy of the Spleen Tyrosine Kinase Inhibitor R406 after Ocular Delivery for Retinoblastoma” (Pharmaceutical Research, 2014).
Converted amounts (≈) assume the structure as drawn. Each block holds one molecule with its values, some of them ahead of it.

Key:
[1] = system: retinoblastoma cells; design: method as in PMID 22237022; conditions: cited from earlier work
[2] = system: human orthotopic retinoblastoma xenografts; design: method as in PMID 22237022; conditions: cited from earlier work
[3] = Crashing upon dilution of DMSO stock in PBS; format: physicochemical
Description: Supplement 11095_2014_1399_MOESM1_ESM.docx, table 14: Table S14. R406 phenylsulfonate salt and free base crashing upon dilution of DMSO stock in PBS | column: Measured Concentration

[4] = Plasma pharmacokinetics after oral or subconjunctival administration; format: in vivo, mouse; conditions: local (subconjunctival), castor oil emulsion 6.5 mM, 65 nmol per eye; mice
Method: (§1) For oral delivery of R788, the target dose of 25 mg/kg R788 was administered by oral gavage as a 4 mM solution in 0.01 N citrate buffer, pH 6 ([9]). For subconjunctival administration, R788 was prepared at a concentration of 4 mM in 2% PEG-800 and filtered through a 0.22 μm filter prior to use (see Table S1). R788 was also administered subconjunctivally as a suspension at a concentration of 25 mM in 10% 2-hydroxylpropyl-β-cyclodextrin (HPβCD, Sigma-Aldrich). For subconjunctival administration, R406 phenylsulfonate salt was administered at a concentration of 800–900 μM as a cosolvent solution in a formulation of 5% Cremaphor-eL, 0.5% ethanol, 0.2% Tween 80 and 94.3% PBS, filtered through a 0.22 μm filter prior to use (see Table S2). R406 phenylsulfonate salt was also administered subconjunctivally at a dose of 31.4 mM solution in DMSO. R406 free base was administered subconjunctivally at a concentration of 6.5 mM as a 25% castor oil (Sigma-Aldrich) emulsion. This emulsion was prepared by mixing castor oil: ethanol (1:1) solution of R406 (approx. 35 mM), in vacuo evaporation of the ethanol, and centrifugation to remove any excess R406, then emulsifying the R406 oil phase in an aqueous phase comprised of Cremaphor-eL, Tween 80 and PBS (final composition of the emulsion: 25% castor oil, 5% Cremaphor-eL, 0.2% Tween-80, 69.8% PBS) by probe sonication. For intravitreal injection, R788 solution was prepared by filtering a 0.12 mM (120 μM) solution of R788 in saline through a 0.22 μm filter. […] For topical delivery, 25–30 mM suspensions were prepared in 5% HPβCD. R406 or R788 concentration in all formulations was determined by UPLC prior to study (in cases where formulation was filtered before administration, concentration was determined post-filtering) Table I.
(§2) For the systemic delivery study R788 was administered as a single bolus dose (25 mg/kg, 10 mL/kg volume) by oral gavage. For the subconjunctival administration study R788 or R406 (10 µL of formulation) was injected into the subconjunctival space of an anesthetized mouse using a Hamilton microliter syringe (Hamilton company, Reno NV). For the intravitreal administration study, R788 (5 μL of […] in saline) was administered to each eye via direct injection. To perform the intravitreal injection, mice were anesthetized, a small incision between the sclera and the cornea was created with a […] needle, and the R788 was injected into the vitreous using a Hamilton microliter syringe. For the topical administration study, R406 (2 μL of 25–30 mM suspension) was applied as a drop to the surface of each eye of an anesthetized mouse.
(§3) At serial time points (0.5, 1, 2, 4, and 8 h post-injection, n = 3 for each time point), blood was collected by terminal cardiac puncture after isoflurane anesthesia. Whole-blood samples were centrifuged immediately at 10,000×g for 5 min at 4°C to separate plasma. Once the cardiac puncture and blood collection was completed, the animal was perfused with 10 mL of saline and euthanized by cervical dislocation. Eyes were removed, rinsed in PBS, gently patted dry, then rinsed and dried again. Eyes were dissected and vitreous was collected. Plasma and vitreous samples were put on dry ice immediately after collection and stored at −80°C until analysis. For quantitative analysis methods and assay validation methods and results, see Supplementary Information.
(§4) Plasma and vitreous concentration time data were analyzed using non-compartmental analysis in WinNonlin 6.2 (Pharsight, Mountain View, CA), providing PK parameters including Cmax (maximum observed concentration), Tmax (time to reach maximum observed concentration), AUC (area under the concentration time curve) and MRT (mean residence time). AUC and AUMC (area under the concentration time first moment curve) values were estimated with the linear trapezoidal method, with parameters calculated using mean concentration values at each time point. […]

[5] = Intraocular and plasma R406 after topical administration (eye drops); format: in vivo, mouse; conditions: mice; for R406 levels in the eye at 0.5 h post dosing / R406 levels in the eye at 1 h post dosing / drug in plasma samples: single topical dose; for R406 levels in the eye at 0.5 h post dosing / R406 levels in the eye at 1 h post dosing: drops, 2 μL of 25 mM suspension in 5% HPβCD; for drug in plasma samples: data not shown
Method: as §1, §2, §3
To evaluate the topical route for R406 delivery, we tested the intraocular concentration after a single topical dose of R406 free base or an R406 […] salt.

[6] = Vitreous pharmacokinetics after oral or subconjunctival administration; format: in vivo, mouse; conditions: local (subconjunctival), castor oil emulsion 6.5 mM, 65 nmol per eye, mice
Method: as §1, §2, §3, §4

[7] = Concentration and stability of R406 in castor oil and castor oil emulsion; format: physicochemical
Method: as §1
An emulsion of 30% castor oil, 5% Cremaphor, 4% T80, 61% PBS was prepared and samples were stored at 4 °C and room temperature (25 °C). Samples were diluted and OD600 for each dilution was measured in triplicate on the day of emulsion preparation (storage time = 0 days) and after 6 days of storage. OD600 was measured using a black Costar clear bottom plate and a Spectramax plate reader.
For storage stability in emulsion, n =4.

[8] = Maximum solubility in PBS or saline; format: physicochemical
[9] = Co-solvent solution formulation solubility matrix; format: physicochemical; conditions: read-out: R788 Solubility
[10] = Bioconversion of R788 to R406 in mouse vitreous; format: in vitro ADME; conditions: extracted mouse vitreous, 37°C, initial 25 μM R788, within 2 h
Method: Conversion of R788 to R406 was examined in freshly harvested murine vitreous, 2 U/mL bovine alkaline phosphatase in PBS (positive control), or plain PBS (no enzyme, negative control) at 37°C using a modified version of previously described phosphate prodrug conversion protocols ([9], [12]). Alkaline phosphatase (ALP) from bovine intestinal mucosa was obtained from Invitrogen and was reconstituted and diluted according to the manufacturer’s instructions. Vitreous was harvested from a mixed population of mice, pooled, and kept on ice for 1 - 2 h. The incubation media were pre-warmed to 37°C before the reaction was initiated by addition of 1 mM of R788 in saline (6 μL of R788 in saline into 234 μL of incubation media in a 1.5 mL Eppendorf tube). R788 was diluted into the incubation media at a 1:40 ratio (volume:volume) to mimic the dilution encountered during intravitreal injection in humans (typically 100 μL injection volume into 4–5 mL of human vitreous volume ([13], [14]). Initial estimated concentration of R788 was 25 μM. At the desired time points (0, 5, 10, 20, 30, 45, 60, and 120 min) an aliquot of 25 μl was collected from each incubation vial and transferred to a 1.5 mL Eppendorf tube, containing 25 μl of acetonitrile to terminate the reaction. 3 samples were tested per time point. Samples were stored at −80°C until quantification.

[11] = Vitreous and plasma R406 after intravitreal injection of R788; format: in vivo, mouse; conditions: intravitreal injection of R788 in saline, 5 μL per eye of 120 μM; mice
Method: For oral delivery of R788, the target dose of 25 mg/kg R788 was administered by oral gavage as a 4 mM solution in 0.01 N citrate buffer, pH 6 ([9]). For subconjunctival administration, R788 was prepared at a concentration of 4 mM in 2% PEG-800 and filtered through a 0.22 μm filter prior to use (see Table S1). R788 was also administered subconjunctivally as a suspension at a concentration of 25 mM in 10% 2-hydroxylpropyl-β-cyclodextrin (HPβCD, Sigma-Aldrich). For subconjunctival administration, R406 phenylsulfonate salt was administered at a concentration of 800–900 μM as a cosolvent solution in a formulation of 5% Cremaphor-eL, 0.5% ethanol, 0.2% Tween 80 and 94.3% PBS, filtered through a 0.22 μm filter prior to use (see Table S2). R406 phenylsulfonate salt was also administered subconjunctivally at a dose of 31.4 mM solution in DMSO. […] R406 or R788 concentration in all formulations was determined by UPLC prior to study (in cases where formulation was filtered before administration, concentration was determined post-filtering) Table I. […]
At serial time points (0.5, 1, 2, 4, and 8 h post-injection, n = 3 for each time point), blood was collected by terminal cardiac puncture after isoflurane anesthesia. […] For quantitative analysis methods and assay validation methods and results, see Supplementary Information.

[12] = design: method as in PMID 21515735; conditions: subconjunctival administration; previous work; cited from earlier work
[13] = design: method as in PMID 21515735; conditions: previous work; cited from earlier work

SMILES: COc1ccc(-c2cc3nccn3c(Nc3ncccc3C(N)=O)n2)cc1OC [BAY-61-3606]
induction of caspase-mediated cell death of retinoblastoma cells in vitro [1]: can induce caspase-mediated cell death
blocking proliferation of human orthotopic retinoblastoma xenografts in vivo [2]: efficacious

SMILES: COc1cc(Nc2ncc(F)c(Nc3ccc4c(n3)NC(=O)C(C)(C)O4)n2)cc(OC)c1OC [R406 free base]
Measured Concentration ([3]; DMSO stock diluted 1 in 10 in PBS prior to filtration (theoretical 1.11 mM)): 965 µM
Measured Concentration ([3]; DMSO stock diluted 1 in 10 in PBS, 0.22 micron filtered): 7 µM
Measured Concentration ([3]; DMSO stock diluted 1 in 20 in PBS, 0.22 micron filtered): 6 µM
Measured Concentration ([3]; DMSO stock, printed 'diluted 1 in 10 in PBS prior to filtration' (second such line, theoretical 557 µM)): 510 µM
Cmax [4]: 119 nM
Plasma AUClast [4]: 0.119 µM·h
Plasma Dose normalized AUC [4]: 0.9 nM∙h/nmol
Plasma Tlast [4]: 2 h
Plasma Tmax [4]: 0.5 h
R406 levels in the eye at 0.5 h post dosing [5]: 0.1 ± 0.06 µM
R406 levels in the eye at 1 h post dosing [5]: 0.1 ± 0.1 µM
drug in plasma samples [5]: No detectable drug
Cmax [6]: 169 ± 35.9 nM
Vitreous AUClast [6]: 0.43 µM·h
Vitreous Dose normalized AUC [6]: 3.3 nM∙h/nmol
Vitreous MRT0-4h [6]: 2.19 h
Vitreous Tlast [6]: 4 h
Vitreous Tmax [6]: 0.5 h
Vitreous MRT0-4h ([6]; listed as R406 base): ≥ 2 h
time stable in castor oil ([7]; room temperature): at least 6 days
average concentration remaining, % of the initial concentration ([7]; stored in castor oil at room temperature, after 6 days, n=3): 113.3%
solubility in PBS ([8]; PBS): insoluble (below the limit of quantitation)

SMILES: CCCCCCCCCCCCCCCC(=O)O.COc1cc(Nc2ncc(F)c(Nc3ccc4c(n3)NC(=O)C(C)(C)O4)n2)cc(OC)c1OC [R406 palmitate salt]
R406 levels in the eye at 0.5 h post dosing [5]: 0.3 ± 0.3 µM
R406 levels in the eye at 1 h post dosing [5]: 0.3 ± 0.2 µM
drug in plasma samples [5]: No detectable drug
vitreous concentration of R406 ([5]; topical 40 mM R406 palmitate 5% cyclodextrin suspension, 1-4 hourly doses, sustained for 1.5 h after each application): 1 to 2 µM
Cmax ([5]; topical delivery in cyclodextrin drops, sustainable via repeated dosing, read-out: vitreous Cmax / intraocular concentration): > 1000 nM

solubility ([9]; Trial 2: 2% PEG-8000, 98% PBS): 3560 µM (≈ 2070 µg/mL)
solubility ([9]; aqueous buffer, Trial 3: 0.5% EtOH, 99.5% PBS): 1010 µM (≈ 586 µg/mL)
solubility ([9]; aqueous buffer, Trial 4: 3% Glycerin, 97% PBS): 1130 µM (≈ 656 µg/mL)
solubility ([9]; aqueous buffer, Trial 9: 100% PBS): 1240 µM (≈ 720 µg/mL)
solubility ([9]; aqueous with cosolvent or surfactant or cyclodextrin, Trial 1: 0.1% Tyloxapol, 99.9% PBS): 1230 µM (≈ 714 µg/mL)
solubility ([9]; aqueous with cosolvent or surfactant or cyclodextrin, Trial 5: 5% Cremaphor-eL, 95% PBS): 1430 µM (≈ 830 µg/mL)
solubility ([9]; aqueous with cosolvent or surfactant or cyclodextrin, Trial 6: 10% PPG, 90% PBS): 1130 µM (≈ 656 µg/mL)
solubility ([9]; aqueous with cosolvent or surfactant or cyclodextrin, Trial 7: 15% pPPG, 85% PBS): 1530 µM (≈ 888 µg/mL)
solubility ([9]; aqueous with cosolvent or surfactant or cyclodextrin, Trial 8: 4% Tween-80, 96% PBS): 1710 µM (≈ 993 µg/mL)
solubility ([9]; aqueous with cosolvent or surfactant or cyclodextrin, Trial 10: 5% Cremaphor-eL, 4% Tween-80, 91% PBS): 1510 µM (≈ 877 µg/mL)
solubility ([9]; aqueous with cosolvent or surfactant or cyclodextrin, Trial 11: 15% pPPG, 4% Tween-80, 81% PBS): 1840 µM (≈ 1070 µg/mL)
solubility ([9]; aqueous with cosolvent or surfactant or cyclodextrin, Trial 12: 5% Cremaphor-eL, 15% pPPG, 80% PBS): 2150 µM (≈ 1250 µg/mL)
solubility ([9]; aqueous with cosolvent or surfactant or cyclodextrin, Trial 13: 5% Cremaphor-eL, 15% pPPG, 4% Tween-80, 76% PBS): 2640 µM (≈ 1530 µg/mL)
solubility ([9]; aqueous with cosolvent or surfactant or cyclodextrin, Trial 14: 2% PEG-8000, 5% Cremaphor-eL, 15% pPPG, 4% Tween-80, 74% PBS): 3470 µM (≈ 2010 µg/mL)
conversion of R788 to R406 [10]: 100%
R406 levels in plasma samples [11]: BLOQ
solubility ([8]; PBS, read-out: maximum solubility in PBS): 1400 µM (≈ 813 µg/mL)
solubility ([8]; saline, read-out: maximum solubility in saline): 1200 to 1400 µM (≈ 697 to 813 µg/mL)
SMILES: COc1cc(Nc2ncc(F)c(Nc3ccc4c(n3)N(COP(=O)(O)O)C(=O)C(C)(C)O4)n2)cc(OC)c1OC [R788]

SMILES: COc1ccc(C2=N[C@@H](c3ccc(Cl)cc3)[C@@H](c3ccc(Cl)cc3)N2C(=O)N2CCNC(=O)C2)c(OC(C)C)c1 [nutlin-3a]
AUC ratio of vitreous to plasma [12]: 28.6
water solubility [13]: approximately 40 μM
